From patent US20250275995A1, “NICOTINAMIDE RIBOSIDE DOSAGE REGIMEN FOR TREATING PARKINSON'S DISEASE” (VESTLANDETS INNOVASJONSSELSKAP AS (VIS), priority 2022, published 2025)
Entries after “also recorded” stand apart in the source; their conditions may differ.

How the values were obtained:
adult humans = conditions: cited from earlier work
brain NAD levels = test: NAD-brain pharmacokinetic study: brain NAD by 31P-MRS; type: in vivo, human; conditions: 1200 mg daily for 8 days
Experimental: • At screening, participants are assessed for eligibility, inclusion/exclusion criteria, medical history and concomitant medication is recorded, and informed consent signed. • The NAD-brain study performs a parallel assessment of NAD replenishment therapy pharmacokinetics in the blood and brain of healthy human subjects and subjects with Parkinson's disease (PD). Healthy individuals and individuals with PD undergo repeated blood sampling and 31P-MRS brain scans during two 20-day periods, each of which starts with 8 days of daily intake of NR 600 mg×2, or NMN 600 mg×2 (Table 10). • For each 20-day period the testing (i.e., scanning and blood draw) frequency is shown in Table 10, below. The two 20-day periods are 14 days apart to allow for washout of the previous compound. This is a pharmacokinetic (PK) study where 6 healthy individuals (3 male and 3 female): • 1) Received NR 1200 mg daily (600 mg×2) for 8 days, followed by an additional 11 days follow up, while undergoing serial blood and brain NAD-measurement. • 2) Received NMN 1200 mg daily (600 mg×2) for 8 days, followed by an additional 11 days follow up, while undergoing serial blood and brain NAD-measurement. The individuals were mixed, so that in stage-1 three individuals received NR and three individuals received NMN, then in stage-2 they switched (Cross-over design). There were almost three weeks (20 days) of washout between the last dose of the first compound, and before the first dose of the second compounds. In the brain, total NAD (NAD^++NADH) levels were measured by 31P-MRS as previously described^19. […] 19 Brakedal, B. et al. The […] study: A randomized phase I trial of nicotinamide riboside supplementation in Parkinson's disease. Cell Metab 34, 396-407.e6 (2022).

NAD metabolome = test: NADPARK: metabolomics, RNA-sequencing and cytokines in blood, muscle, CSF; type: in vivo, human; conditions: NR 1000 mg daily
Experimental: A-C: 31P-MRS was performed at baseline (v1) and after 30 days of treatment (v2). A: exemplary data from one subject showing voxel position. Spectra were acquired for each grid position. B (top): average processed spectra from multiple voxels (black) and the model fit (red). B (bottom): the model fit is composed of the convolution of all spectral contributions of a simulated dataset fitted to the experimental data. […] PCr: phosphocreatine. C: comparison of cerebral NAD levels in the placebo (PL) and NR groups at baseline (v1) and visit-2 (v2). […] Individual subjects are indicated by dots. Connecting lines show the change between v1 and v2. The black points and lines show the mean of each group. […] D: FDG-PET data from all subjects in the NR-group, showing the mean NR-Related Pattern (NRRP, top panel), PD-related pattern (PRDP, middle panel), and the overlap of the two (bottom panel). NR partially ameliorates the striatal and thalamic hypermetabolism of PD. E: Between visit changes showing increased NRRP expression in the NR versus the placebo group. The red line indicates mean values before and after the treatment, black lines indicate individuals with a positive NAD response in the MRS analysis, grey lines indicate individuals without an NAD response in the MRS (*p=0.027, permutation test, 1000 iterations). […] G: Metabolomics in PBMCs, muscle, and CSF.
NR has widespread metabolic and regulatory effects. […] These findings indicate that NR supplementation increases both mitochondrial respiration and proteostasis—two hallmark pathogenic processes involved in PD.

blood NAD levels = conditions: cited from earlier work
[1] = NR-SAFE: clinical laboratory values from blood samples (serum); type: in vivo, human
Experimental: Analysis of clinical laboratory values from blood samples was performed by the Department of Medical Biochemistry and Pharmacology (MBF) at Haukeland University Hospital, Bergen, Norway.

Structure (SMILES): NC(=O)c1ccc[n+]([C@@H]2O[C@H](CO)[C@@H](O)[C@H]2O)c1 [NR, nicotinamide riboside]
- triglycerides, total cholesterol and LDL (adult humans; NR at lower doses, e.g., in combination with pterostilbene): mild increase in triglycerides, total cholesterol and LDL
- tolerability in adult humans (adult humans; doses up to at least 2000 mg daily): well tolerated with no evidence of toxicity
- brain NAD levels, baseline vs day of maximal blood NAD (brain NAD levels; 31P-MRS, day 9 (NR), day 8 (NMN)): significant increase in brain NAD levels
- NAD levels at day 19 (brain NAD levels; 11 days after last dose): remained elevated
- NAD-related metabolites in blood (PBMC), muscle and CSF (NAD metabolome; 30 days, metabolomics): highly significant (p<<0.001 for all tests) increases in the acid form of NAD (NAAD), and nicotinamide (Nam) degradation products; also recorded: highly significant increase in NAD-related metabolites in blood, muscle and CSF
- RNA-sequencing in blood and muscle biopsy (NAD metabolome; NR group): highly significant (FDR<10^−8) upregulation of the mitochondrial, proteasomal and lysosomal pathways
- inflammatory cytokines in the central nervous system (NAD metabolome; Phase I study): downregulates multiple inflammatory cytokines in the central nervous system
- blood NAD levels in a 24h-period after intake (blood NAD levels; 1000 mg NR after increasing NR doses twice daily for nine days): stably increased
- blood NAD levels 23.8 h after intake (blood NAD levels; 1000 mg NR, single subject): decreased, but not yet to baseline
- time of peak blood NAD levels after intake (blood NAD levels; 1000 mg NR, single subject): 7.7 h
- increase of blood NAD^+ levels (blood NAD levels; 1000 mg or 2000 mg NR daily, reported studies): 1.37-2.8 fold
- clinical symptoms related to the observed HCy increase ([1]; NR 3000 mg daily, 4 weeks): No participants developed any clinical symptoms
- increase in triglycerides, total cholesterol and LDL ([1]; NR 3000 mg daily, 4 weeks): no such effects
- serum folic acid, methylmalonic acid and vitamin B12 ([1]; NR 3000 mg daily, 4 weeks): remained unchanged
- serum triglyceride levels ([1]; NR group, 3000 mg daily, 4 weeks): nominal trend for a reduction in serum triglyceride levels
- change in serum HCy at second visit ([1]; V2, day 3 of treatment, vs baseline, NR 3000 mg daily): +2.29±1.72 μmol/L
- change in serum HCy after second visit until end of study ([1]; V2 to V7, NR 3000 mg daily): -0.63 ± 1.76 µmol/L
- serum HCy levels relative to normal range ([1]; most participants, NR 3000 mg daily): remained within normal range
- change in serum homocysteine levels, last visit vs baseline ([1]; Δ V7−V1, NR 3000 mg daily): +1.66±0.63 μmol/L
